Test results taken from ChEMBL document CHEMBL5465560, “Selectivity Literature for EUbOPEN Chemogenomic Library” (2024).
Values belong to the compound of their own block, whether it stands above or below them.

Experiments:
[1] = target: T1, Serine/threonine-protein kinase NLK (Homo sapiens) (UniProt Q9UBE8); experiment: Selectivity interaction (KinomeScan (DiscoverX)) EUB0001049a NLK; conditions: at 1 µM
T1 sequence (whole entry): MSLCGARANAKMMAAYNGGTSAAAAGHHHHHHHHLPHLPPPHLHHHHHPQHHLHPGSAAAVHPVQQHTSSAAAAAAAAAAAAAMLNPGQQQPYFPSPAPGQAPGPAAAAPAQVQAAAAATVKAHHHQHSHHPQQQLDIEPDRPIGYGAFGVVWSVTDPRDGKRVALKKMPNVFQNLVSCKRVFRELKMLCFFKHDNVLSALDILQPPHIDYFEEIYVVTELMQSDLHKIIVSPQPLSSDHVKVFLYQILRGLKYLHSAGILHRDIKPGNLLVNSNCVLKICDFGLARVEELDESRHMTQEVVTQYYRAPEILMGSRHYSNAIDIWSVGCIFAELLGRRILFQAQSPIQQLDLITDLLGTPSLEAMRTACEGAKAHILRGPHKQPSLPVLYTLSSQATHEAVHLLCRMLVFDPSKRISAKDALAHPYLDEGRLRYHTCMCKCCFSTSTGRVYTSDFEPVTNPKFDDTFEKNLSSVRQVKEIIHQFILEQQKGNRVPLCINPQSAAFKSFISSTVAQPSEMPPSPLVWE

[2] = target: G protein-coupled receptor kinase 6 (Homo sapiens) (UniProt P43250); experiment: Selectivity interaction (Kinase panel (Invitrogen)) EUB0000639a GRK6; conditions: at 200 nM
Sequence of G protein-coupled receptor kinase 6 (Homo sapiens) (P43250 whole entry, looked up): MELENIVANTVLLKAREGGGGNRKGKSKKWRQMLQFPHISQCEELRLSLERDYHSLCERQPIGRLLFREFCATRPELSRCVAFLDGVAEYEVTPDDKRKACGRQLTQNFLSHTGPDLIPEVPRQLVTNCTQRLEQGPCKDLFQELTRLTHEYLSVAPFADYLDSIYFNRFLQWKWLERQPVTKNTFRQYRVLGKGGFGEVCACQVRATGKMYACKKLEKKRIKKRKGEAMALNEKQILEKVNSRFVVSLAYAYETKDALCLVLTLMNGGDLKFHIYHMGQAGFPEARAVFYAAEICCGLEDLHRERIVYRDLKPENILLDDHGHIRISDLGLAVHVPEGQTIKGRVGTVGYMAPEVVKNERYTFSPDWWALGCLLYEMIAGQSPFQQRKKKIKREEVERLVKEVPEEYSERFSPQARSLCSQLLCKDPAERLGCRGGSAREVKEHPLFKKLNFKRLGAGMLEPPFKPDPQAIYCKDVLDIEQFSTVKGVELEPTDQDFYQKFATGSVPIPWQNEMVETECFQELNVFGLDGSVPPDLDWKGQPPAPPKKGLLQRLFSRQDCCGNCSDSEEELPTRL

[3] = target: Glycogen synthase kinase-3 alpha (Homo sapiens, UniProt P49840); experiment: Selectivity interaction (Competition-binding assay (DiscoverX)) EUB0001632a GSK3A
Sequence of Glycogen synthase kinase-3 alpha (P49840 whole entry): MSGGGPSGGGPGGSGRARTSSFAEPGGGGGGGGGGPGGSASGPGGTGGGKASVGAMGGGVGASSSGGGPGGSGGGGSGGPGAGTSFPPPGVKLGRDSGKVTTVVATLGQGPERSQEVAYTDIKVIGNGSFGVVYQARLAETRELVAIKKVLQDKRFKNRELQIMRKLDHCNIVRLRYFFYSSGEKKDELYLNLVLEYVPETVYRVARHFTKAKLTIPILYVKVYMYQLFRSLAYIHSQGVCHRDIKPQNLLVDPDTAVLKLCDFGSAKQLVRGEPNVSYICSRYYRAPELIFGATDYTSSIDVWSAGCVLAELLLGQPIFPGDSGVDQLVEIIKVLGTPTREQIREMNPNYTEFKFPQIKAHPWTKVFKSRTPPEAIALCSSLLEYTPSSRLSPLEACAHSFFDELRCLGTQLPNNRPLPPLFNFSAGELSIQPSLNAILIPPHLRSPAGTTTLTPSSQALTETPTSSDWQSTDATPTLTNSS

[4] = target: STE20-like serine/threonine-protein kinase (Homo sapiens, UniProt Q9H2G2); experiment: Selectivity interaction (KinomeScan (DiscoverX)) EUB0000695a SLK; conditions: at 100 nM
Sequence of STE20-like serine/threonine-protein kinase (Q9H2G2 whole entry, looked up): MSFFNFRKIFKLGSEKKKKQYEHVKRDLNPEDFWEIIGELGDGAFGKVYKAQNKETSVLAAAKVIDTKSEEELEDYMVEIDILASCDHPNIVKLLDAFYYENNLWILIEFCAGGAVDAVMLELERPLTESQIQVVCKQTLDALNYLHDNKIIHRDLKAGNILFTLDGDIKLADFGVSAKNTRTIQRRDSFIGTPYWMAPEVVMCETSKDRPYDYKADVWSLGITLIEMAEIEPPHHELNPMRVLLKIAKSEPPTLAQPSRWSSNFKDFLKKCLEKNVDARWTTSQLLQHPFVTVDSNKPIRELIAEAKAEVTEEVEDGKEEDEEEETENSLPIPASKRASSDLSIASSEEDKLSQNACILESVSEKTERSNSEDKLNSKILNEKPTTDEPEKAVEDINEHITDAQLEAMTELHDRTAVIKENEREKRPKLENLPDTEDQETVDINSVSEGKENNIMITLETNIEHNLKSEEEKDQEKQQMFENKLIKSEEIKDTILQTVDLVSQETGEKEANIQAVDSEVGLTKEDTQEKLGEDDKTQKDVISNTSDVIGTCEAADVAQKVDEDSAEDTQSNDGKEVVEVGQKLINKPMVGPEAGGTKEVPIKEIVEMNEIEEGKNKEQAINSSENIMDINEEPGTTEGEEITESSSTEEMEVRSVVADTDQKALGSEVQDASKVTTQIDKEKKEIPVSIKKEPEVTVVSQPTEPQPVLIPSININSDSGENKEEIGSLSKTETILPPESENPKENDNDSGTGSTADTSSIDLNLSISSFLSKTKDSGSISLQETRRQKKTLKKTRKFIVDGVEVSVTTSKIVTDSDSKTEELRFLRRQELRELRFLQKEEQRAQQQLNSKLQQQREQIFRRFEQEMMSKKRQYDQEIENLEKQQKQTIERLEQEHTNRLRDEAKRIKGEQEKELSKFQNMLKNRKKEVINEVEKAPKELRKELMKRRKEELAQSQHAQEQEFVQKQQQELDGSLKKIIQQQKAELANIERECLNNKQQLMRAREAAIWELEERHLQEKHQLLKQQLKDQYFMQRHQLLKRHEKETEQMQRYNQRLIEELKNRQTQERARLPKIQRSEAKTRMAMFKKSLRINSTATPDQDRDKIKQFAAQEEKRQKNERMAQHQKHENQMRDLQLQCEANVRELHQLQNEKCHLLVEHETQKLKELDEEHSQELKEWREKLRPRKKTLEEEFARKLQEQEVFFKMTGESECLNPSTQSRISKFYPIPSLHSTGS

[5] = target: T2, Uncharacterized serine/threonine-protein kinase SBK3 (Homo sapiens) (UniProt P0C264); experiment: Selectivity interaction (KinomeScan (DiscoverX)) EUB0000595a SBK3; conditions: at 10 µM
T2 sequence (whole entry): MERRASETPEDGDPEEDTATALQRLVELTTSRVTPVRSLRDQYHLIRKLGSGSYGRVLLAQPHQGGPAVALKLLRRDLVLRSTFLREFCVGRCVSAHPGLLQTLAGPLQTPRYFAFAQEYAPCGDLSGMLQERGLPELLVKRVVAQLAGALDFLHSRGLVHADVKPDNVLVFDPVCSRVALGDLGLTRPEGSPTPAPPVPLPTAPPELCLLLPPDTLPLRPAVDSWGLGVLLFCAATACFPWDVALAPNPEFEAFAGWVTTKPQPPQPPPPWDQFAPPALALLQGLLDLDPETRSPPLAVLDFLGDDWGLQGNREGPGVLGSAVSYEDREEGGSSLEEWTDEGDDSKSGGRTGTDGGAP

Misshapen-like kinase 1 = Misshapen-like kinase 1 (Homo sapiens, UniProt Q8N4C8); experiment: Selectivity interaction (KinomeScan (DiscoverX)) EUB0000045b MINK1
Sequence of Misshapen-like kinase 1 (Q8N4C8 whole entry, looked up): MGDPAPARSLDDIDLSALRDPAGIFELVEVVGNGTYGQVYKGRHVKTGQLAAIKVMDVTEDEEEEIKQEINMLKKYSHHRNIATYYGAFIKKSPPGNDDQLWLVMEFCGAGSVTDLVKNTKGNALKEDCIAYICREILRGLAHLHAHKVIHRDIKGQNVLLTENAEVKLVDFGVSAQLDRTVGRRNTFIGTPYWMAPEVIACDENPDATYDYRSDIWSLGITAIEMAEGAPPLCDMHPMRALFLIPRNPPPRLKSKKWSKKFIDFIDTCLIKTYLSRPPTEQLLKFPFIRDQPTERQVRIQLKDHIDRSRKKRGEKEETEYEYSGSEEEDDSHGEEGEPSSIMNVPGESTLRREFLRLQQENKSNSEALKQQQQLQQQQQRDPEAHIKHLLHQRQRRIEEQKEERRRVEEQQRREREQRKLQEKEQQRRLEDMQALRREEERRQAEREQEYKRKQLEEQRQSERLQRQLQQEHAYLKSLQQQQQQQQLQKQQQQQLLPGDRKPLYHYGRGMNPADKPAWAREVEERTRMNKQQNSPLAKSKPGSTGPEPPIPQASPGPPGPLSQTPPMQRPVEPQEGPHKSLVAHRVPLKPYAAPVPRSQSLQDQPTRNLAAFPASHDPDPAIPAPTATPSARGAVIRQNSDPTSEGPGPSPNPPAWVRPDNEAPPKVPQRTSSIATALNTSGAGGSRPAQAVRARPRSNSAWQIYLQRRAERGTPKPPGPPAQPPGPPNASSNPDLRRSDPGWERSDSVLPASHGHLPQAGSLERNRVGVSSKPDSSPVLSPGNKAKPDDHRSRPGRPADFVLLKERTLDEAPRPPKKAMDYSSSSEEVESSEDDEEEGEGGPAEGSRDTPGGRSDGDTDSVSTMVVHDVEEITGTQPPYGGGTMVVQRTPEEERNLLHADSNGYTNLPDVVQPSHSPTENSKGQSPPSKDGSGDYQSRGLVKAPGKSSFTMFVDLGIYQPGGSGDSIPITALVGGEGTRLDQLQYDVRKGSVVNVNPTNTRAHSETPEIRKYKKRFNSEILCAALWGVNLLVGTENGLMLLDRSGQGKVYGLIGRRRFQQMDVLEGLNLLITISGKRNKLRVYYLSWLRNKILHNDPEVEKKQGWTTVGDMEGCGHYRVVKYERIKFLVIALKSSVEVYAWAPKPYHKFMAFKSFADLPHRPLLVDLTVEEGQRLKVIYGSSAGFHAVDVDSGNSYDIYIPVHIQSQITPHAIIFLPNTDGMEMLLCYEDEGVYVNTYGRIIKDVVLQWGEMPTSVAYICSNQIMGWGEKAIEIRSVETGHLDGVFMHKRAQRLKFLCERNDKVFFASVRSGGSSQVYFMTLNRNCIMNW

[6] = target: T3, Serine/threonine-protein kinase TNNI3K (Homo sapiens) (UniProt Q59H18); experiment: Selectivity interaction (KinomeScan (DiscoverX)) EUB0000607a TNNI3K; conditions: at 10 µM
T3 sequence (whole entry): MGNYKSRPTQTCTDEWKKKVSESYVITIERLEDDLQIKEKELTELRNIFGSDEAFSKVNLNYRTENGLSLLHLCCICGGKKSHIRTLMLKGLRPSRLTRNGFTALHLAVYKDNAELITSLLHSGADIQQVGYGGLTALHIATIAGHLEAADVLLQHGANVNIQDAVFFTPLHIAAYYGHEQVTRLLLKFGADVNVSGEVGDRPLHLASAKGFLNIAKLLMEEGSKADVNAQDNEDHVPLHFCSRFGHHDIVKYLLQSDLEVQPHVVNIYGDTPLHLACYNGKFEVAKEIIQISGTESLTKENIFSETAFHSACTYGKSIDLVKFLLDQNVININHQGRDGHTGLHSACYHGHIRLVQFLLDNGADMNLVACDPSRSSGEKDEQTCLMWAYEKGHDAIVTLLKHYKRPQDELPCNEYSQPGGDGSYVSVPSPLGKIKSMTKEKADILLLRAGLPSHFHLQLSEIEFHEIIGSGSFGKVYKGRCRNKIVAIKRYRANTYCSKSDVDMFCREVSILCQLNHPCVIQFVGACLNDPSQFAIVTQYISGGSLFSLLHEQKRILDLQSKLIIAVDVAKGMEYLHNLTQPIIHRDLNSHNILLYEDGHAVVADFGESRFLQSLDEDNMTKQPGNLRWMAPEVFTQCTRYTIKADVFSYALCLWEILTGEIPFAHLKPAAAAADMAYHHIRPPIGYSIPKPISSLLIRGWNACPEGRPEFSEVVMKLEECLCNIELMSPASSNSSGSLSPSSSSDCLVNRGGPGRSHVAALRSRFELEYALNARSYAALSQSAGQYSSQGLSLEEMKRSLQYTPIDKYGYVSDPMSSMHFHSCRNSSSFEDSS

[7] = target: T4, Serine/threonine-protein kinase haspin (Homo sapiens) (UniProt Q8TF76); experiment: Selectivity interaction (KinomeScan (DiscoverX)) EUB0000666a GSG2; conditions: at 10 µM
T4 sequence (whole entry): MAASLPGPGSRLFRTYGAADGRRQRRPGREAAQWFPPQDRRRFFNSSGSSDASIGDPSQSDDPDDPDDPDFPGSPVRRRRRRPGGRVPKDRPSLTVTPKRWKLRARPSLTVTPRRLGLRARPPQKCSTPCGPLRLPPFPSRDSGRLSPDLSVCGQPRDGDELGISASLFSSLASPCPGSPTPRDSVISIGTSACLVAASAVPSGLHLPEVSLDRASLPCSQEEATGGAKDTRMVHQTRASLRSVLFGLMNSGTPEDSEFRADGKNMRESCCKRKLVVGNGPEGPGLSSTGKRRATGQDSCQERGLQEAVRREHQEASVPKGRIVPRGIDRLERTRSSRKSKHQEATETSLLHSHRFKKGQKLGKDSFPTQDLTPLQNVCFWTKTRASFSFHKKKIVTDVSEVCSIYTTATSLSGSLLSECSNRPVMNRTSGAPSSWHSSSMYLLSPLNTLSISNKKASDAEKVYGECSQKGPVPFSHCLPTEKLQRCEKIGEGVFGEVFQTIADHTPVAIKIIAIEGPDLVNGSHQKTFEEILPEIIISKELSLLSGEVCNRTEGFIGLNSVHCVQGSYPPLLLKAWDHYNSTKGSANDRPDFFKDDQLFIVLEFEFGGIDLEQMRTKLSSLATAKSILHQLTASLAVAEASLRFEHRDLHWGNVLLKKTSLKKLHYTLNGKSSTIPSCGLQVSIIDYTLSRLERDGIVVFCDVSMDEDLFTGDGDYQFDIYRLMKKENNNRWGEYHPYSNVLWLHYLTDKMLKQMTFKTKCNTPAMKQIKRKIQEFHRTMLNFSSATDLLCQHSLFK

Structure (SMILES): COc1cc(Nc2nc(C)cc(-c3cnn4nc(OC)ccc34)n2)cc(C(F)(F)F)c1
% of control [1]: 100%

% of inhibition [2]: 3.09%
Structure (SMILES): CC[C@@H]1[C@H](F)C(=O)N[C@@H]1COc1nccc2cc(C(N)=O)c(OC)cc12 [ZIMLOVISERTIB]

Kd [3]: 1200 nM
Structure (SMILES): Cn1cc(-n2cnc3c(NCc4nc5cc(Cl)c(Cl)cc5[nH]4)nc(N4CCOCC4)nc32)cn1

Structure (SMILES): Cc1cc(F)c(C(=O)Nc2cccc(-c3nncn3C(C)C)n2)cc1-n1cnc(C2CC2)c1
% of control [4]: 77%

Structure (SMILES): COCC(=O)NC/C=C/c1ccc2ncnc(Nc3ccc(Oc4ccc(C)nc4)c(C)c3)c2c1 [CP-724714]
% of control [5]: 100%

Structure (SMILES): C=CC(=O)Nc1cc(-n2c(=O)ccc3cnc4ccc(-c5ccc(NS(C)(=O)=O)cc5)cc4c32)ccc1C
% of control (Misshapen-like kinase 1; at 1 µM): 100% | % of control (Misshapen-like kinase 1; at 10 µM): 73%

Structure (SMILES): CNC(=O)Nc1ccc(-c2nc(N3CC4CCC(C3)O4)c3cnn(C4CCC5(CC4)OCCO5)c3n2)cc1
% of control [6]: 59%

Structure (SMILES): O=C(NOC[C@H](O)CO)c1ccc(F)c(F)c1Nc1ccc(I)cc1F
% of control [7]: 100%
